Experimental data from PubChem BioAssay (NCI).
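96-well plates; 48 h exposure; 5 concentrations. Endpoints by linear interpolation between flanking doses. Not reached: highest tested concentration assigned. GI50: concentration for 50% inhibition of growth. TGI is the concentration that stops growth completely.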

Legend:
Test in all cases: NCI tumour cell line growth inhibition, 48 h
MDA-MB-231 breast = system: MDA-MB-231 breast
NCI-H460 lung = system: NCI-H460 lung
RXF 393 renal = system: RXF 393 renal
HL-60(TB) leukemia = system: HL-60(TB) leukemia
IGROV1 ovarian = system: IGROV1 ovarian
RPMI-8226 leukemia = system: RPMI-8226 leukemia
MALME-3M melanoma = system: MALME-3M melanoma
OVCAR-4 ovarian = system: OVCAR-4 ovarian
NCI-H23 lung = system: NCI-H23 lung
HT29 colon = system: HT29 colon

Row | Compound | GI50 (MDA-MB-231 breast) [µM] | TGI (MDA-MB-231 breast) [µM] | GI50 (NCI-H460 lung) [µM] | TGI (NCI-H460 lung) [µM] | GI50 (RXF 393 renal) [µM] | TGI (RXF 393 renal) [µM] | GI50 (HL-60(TB) leukemia) [µM] | TGI (HL-60(TB) leukemia) [µM] | GI50 (IGROV1 ovarian) [µM] | TGI (IGROV1 ovarian) [µM] | GI50 (RPMI-8226 leukemia) [µM] | TGI (RPMI-8226 leukemia) [µM] | GI50 (MALME-3M melanoma) [µM] | TGI (MALME-3M melanoma) [µM] | GI50 (OVCAR-4 ovarian) [µM] | TGI (OVCAR-4 ovarian) [µM] | GI50 (NCI-H23 lung) [µM] | TGI (NCI-H23 lung) [µM] | GI50 (HT29 colon) [µM] | TGI (HT29 colon) [µM]
1 | Cc1ccc2c(C(C[N+](=O)[O-])c3ccco3)c(-c3ccccc3)[nH]c2c1 (centres undefined) | 27.1 | > 100 | 26.7 | > 100 | 32.2 | > 100 | 28.3 | > 100 | 24.6 | > 100 | 53.7 | > 100 | 21.8 | > 100 | 69 | > 100 | 64.5 | > 100 | > 100 | > 100
2 | CCCCCCCCCCCCNC(=O)[C@H]1CSC(c2ccsc2)N1 (some centres undefined) | 0.946 | 1.74 | 0.986 | 1.84 | 0.96 | 1.69 | 0.91 | 2.31 | 0.96 | 1.92 | 1.72 | 5.69 | 1.14 | 2.12 | 0.911 | 1.73 | 0.992 | 1.94 | 0.995 | 1.83
3 | CCn1c(-c2nonc2N)nc2c(C#CC(C)(C)O)ncc(OC[C@@H]3CCCN3)c21 | 7.46 | > 25 | 4.51 | > 22.6 | 0.189 | 3.18 | 5.63 | 15 | 0.676 | > 25 | 24.8 | > 25 | > 15.3 | > 25 | 8.88 | > 25 | 8.64 | > 25 | 5.15 | > 19.7
4 | Cc1nc2cc(Nc3nc(Nc4ccc(F)cc4)nc(-c4ccc(Cl)cc4)n3)ccc2n1Cc1ccccc1 | 9.97 | > 100 | 6.42 | > 100 | 4.21 | 38.5 | 3.28 | > 100 | 5.9 | > 100 | 2.62 | > 100 | 5.29 | 22.4 | 2.86 | 17.6 | 14.7 | > 100 | 4.63 | > 100
5 | Cc1cc(C)c2nccc(NCCCN(C)C)c2c1[N+](=O)[O-] |  | > 100 |  | > 100 |  | 47.8 |  | 78.1 |  | 92.3 |  | > 100 |  | 36.4 |  | 30.2 |  | 37.2 |  | 41.5
6 | CN1CCN(CCCOc2ccc3ncnc(Nc4ccc(Oc5cccc(F)c5)c(Cl)c4)c3c2)CC1 | 1.7 | 3.16 | 1.77 | 3.3 | 1.56 | 3.1 | 2.05 | 4.17 | 0.711 | 2.23 | 1.58 | 4.86 | 1.56 | 3.05 | 1.62 | 3.6 | 1.48 | 3.02 | 1.55 | 4.11
7 | CCOC(=O)C(=Cc1c(-c2ccccc2)[nH]c2ccccc12)C(=O)OCC | 5.71 | 34.8 | 3.75 | 13.6 | 3.1 | 12.1 | 4.19 | 35.5 | 5.56 | 23.7 | 0.219 | 3.28 | 8.09 | 22.3 | 5.49 | > 76.5 | 2.56 | 11.7 | 4.56 | 17.1
8 | COc1ccc(-c2nn3ncccc3c2-c2ccnc(Nc3cccc(C(F)(F)F)c3)n2)cc1 | 8.12 | > 25 | 7.62 | > 25 | 5.76 | 24.5 | 8.74 | > 25 | 4.39 | > 20.2 | 7.67 | > 25 | 10.2 | > 25 | 8.54 | > 25 | 7.99 | > 25 | 7.56 | > 25
9 | NCCn1c2c(c3ccccc3c1=O)C(=O)c1ccccc1-2 | 0.431 | 1.49 |  | 6.4 | 1.87 | 6.55 | 0.162 | 0.611 | 0.592 | > 45.8 | 0.338 | 1.5 | 0.577 | 3.2 | 0.982 | 3.48 | 0.237 | 1.86 | 0.401 | 5.22
10 | COc1ccc(-c2conc2-c2ccccc2)cc1 | 0.615 | > 27.5 | 0.324 | 4.37 | 0.249 | > 100 | 0.288 | 1.41 | 0.498 | > 100 | 0.453 | 41.9 | 4.95 | > 80.1 | 2.35 | > 100 | 0.549 | > 100 | 0.112 | > 100
11 | Cc1cc2c(-c3nc4ccccn4c3NC34CC5CC(CC(C5)C3)C4)c(O)c(O)cc2c(O)c1-c1c(C)cc2c(-c3nc4ccccn4c3NC34CC5CC(CC(C5)C3)C4)c(O)c(O)cc2c1O | 0.763 | 11.4 | 0.0903 | 2.1 | 0.464 | 2.63 | 0.789 | 11.5 | 0.883 | > 25 | 0.355 | > 25 | 0.574 | > 25 | 0.728 | > 25 | 0.137 | 3.09 | 0.788 | > 25
12 | COc1ccc2nc3cc(Cl)ccc3c(Nc3ccc(O)c(CN4CCCC4)c3)c2c1 | 1.66 | 3.84 | 2.46 | 6.15 | 1.7 | 3.17 | 2.18 | 6.08 | 2.6 | 6.67 | 2.55 | 6.41 | 2.41 | 4.29 | 2.7 | 8.24 | 2.22 | 7.08 | 1.32 | 3.44
13 | Cc1ccc(NCCNCC(O)CO)c2c(=O)c3ccccc3sc12 (centres undefined) | 1.37 | 3 | 0.776 | 2.43 | 1.43 | 2.89 | 1.62 | 3.7 | 1.61 | 3.43 | 2.48 | 6.83 | 1.37 | 2.76 | 1.86 | 4.68 | 1.73 | 3.54 | 1.41 | 3.04
14 | COC(=O)C1=C(C(=O)OC)C(C(=O)OC)C(C(=O)OC)C(C(=O)OC)(C(=O)OC)C(C(=O)OC)=C1C(=O)OC (centres undefined) |  | 40.1 |  | 37.4 |  | 16.7 |  | 4.95 |  | 36.8 |  | 10.5 |  | 15.7 |  | > 52 |  | 35.8 |  | 35.3
